{
  "source": "patent US4849410A",
  "about": "“Pseudopterosin and synthetic derivatives thereof” (The Regents of the University of California, priority 1987, dated 1989)",
  "key": {"[1]": {"system": "Intraperitoneally Administered Phenylquinone", "test": "Phenylquinone Assay for Analgesia (writhing)", "format": "in vivo, mice", "details": "for Mean No. Responses ± S.E.M.: phenylquinone 2.0 mg/kg", "protocol": "d. Phenylquinone Assay for Analgesia\nTest compound is injected subcutaneously into mice. After 30 minutes, phenylquinone is injected intraperitoneally to cause pain as indicated by writhing.\nTest compound was administered subcutaneously in sesame oil at concentrations up to 5 mg per ml depending on the test compound dosage protocol. The highest dose was 50 mg per Kg. Control groups received sesame oil subcutaneously."}, "[2]": {"system": "Fertilized Sea Urchin Egg", "test": "Fertilized Sea Urchin Egg Inhibition of Cleavage Assay for Anti-proliferation", "format": "cell-based", "details": "doses as low as", "protocol": "c. Fertilized Sea Urchin Egg Inhibition of Cleavage Assay for Anti-proliferation\nSea urchins are induced to spawn by injection of 0.5M KCl into the coelomic cavity. Test compound is added to a 1% slurry of eggs within 5 minutes following fertilization and incubated until the completion of the division in control slurry, 90-120 minutes. Inhibition is measured as the present of undivided cells in the slurry at the end of this incubation.\nThe vheicle or carrier for the compounds used in the inflammatory and analgesic assays was as follows; For the mouse ear inflammatory assay, the vehicle was acetone. Controls received 25 microliters of acetone. Test compounds were applied to the experimental animals in 25 microliter volumes. For the sperm motility and fertilized sea urchin egg assays, the compounds were dissolved in 10 microliters undenatured ethanol."}, "[3]": {"system": "M5076 reticulum cell sarcoma", "test": "Activity in mice bearing ip M5076 reticulum cell sarcoma", "format": "in vivo, female B6D2F1 mice", "protocol": "(§1) Compound I was also evaluated for activity against solid tumors as follows:\n(§2) One-half ml of a 10 percent (v:v) brei of tumor cells prepared from solid B16 melanoma or M5076 reticulum cell sarcoma was implanted ip in female B6D2F1 mice which were randomized to treatment groups of 8 animals each. Treatment was initiated 24 hours after tumer inoculation and was continued daily for 10 days (cisplatin was administered q4Dx4 on Days 1, 5, 9 and 13). Mice were monitored daily for 60 days, and the median day of death was determined compared to three groups of untreated controls to provide percent increase in lifespan (ILS). ILS values of greater than or equal to 50 percent represent biologically significant antitumor effects. Cisplatin was curative in M5076 with 6/8 tumor-free survivors on Day 60 at the top dose level."}, "B16 melanoma": {"system": "B16 melanoma", "test": "Activity in mice bearing ip B16 melanoma", "format": "in vivo, female B6D2F1 mice", "protocol": "as §1, §2"}, "[4]": {"system": "highly metastatic subline (F10) of B16 melanoma", "test": "Antiproliferative effects on tumor cells growing in tissue culture", "format": "cell-based", "details": "continuous exposure; read-out: concentration that inhibited proliferation by 50 percent", "protocol": "Compound I was also tested for antiproliferative effects on tumor cells growing in tissue culture."}, "[5]": {"test": "Side effects, subcutaneous administration to mice", "format": "in vivo", "excerpt": "The following side effect of pseudopterosin A (Compound I) was observed."}, "[6]": {"system": "phenyl-p-benzoquinone (PQ) writhing", "test": "Phenyl-p-benzoquinone Assay for Analgesia", "format": "in vivo, mouse", "details": "for % Inhibition (writhing): s.q."}, "[7]": {"system": "PMA induced swelling of the mouse ear", "test": "Anti-Inflammatory Assay (systemic administration)", "format": "in vivo, male Swiss Webster mice", "protocol": "Anti-Inflammatory Assay (systemic administration)\n2 ug PMA was applied in 25 ul of acetone to the inner surface of the left ear of male Swiss Webster mice (4 to 6 weeks old), the right ear is treated with acetone only. […] 200 minutes after PMA treatment, the mice were killed by cervical dislocation and both ears were cut off, punched with a #4 cork borer and weighed. The swelling induced by PMA was calculated as the increase in the weight of the left ear minus the right ear. The percent inhibition of edema was calculated as control-drug/control×100. […] ED50 values were estimated by the method of Litchfield and Wilcoxon."}, "[8]": {"system": "PMA induced swelling of the mouse ear", "test": "Anti-Inflammatory Assay (topical administration)", "format": "in vivo, mice", "protocol": "Anti-Inflammatory (topical administration)\n2 ug PMA was applied in 25 ul of acetone of the inner surface of the left ear, the right ear is treated with solvent only. […] 200 minutes after PMA treatment, the mice were killed by cervical dislocation and both ears were cut off, punched with a #4 cork borer and weighed. The swelling induced by PMA was calculated as the mean increase in the weight of the left ear minus the right ear. The pecent inhibition of edema was calculated as control-drug/control×100. […] ED50 values were estimated by the method of Litchfield and Wilcoxon."}, "[9]": {"details": "12.5 mg/kg to 50 mg/kg subcutaneously"}},
  "note": "pIC50: −log10 of the molar value.",
  "data": [
    {"smiles": "CC(C)=C[C@H]1C[C@H](C)[C@H]2CC[C@H](C)c3c(O[C@@H]4OC[C@@H](O)[C@H](O)[C@H]4O)c(O)c(C)c1c32", "note": "[Compound I, pseudopterosin A]", "values": [
      {"measurement": "Mean No. Responses ± S.E.M.", "setting": "[1]; 3.1 mg/kg", "value": "8.55 ± 1.38"},
      {"measurement": "Mean No. Responses ± S.E.M.", "setting": "[1]; 6.3 mg/kg", "value": "5.87 ± 1.24"},
      {"measurement": "Mean No. Responses ± S.E.M.", "setting": "[1]; 12.5 mg/kg", "value": "5.87 ± 0.77"},
      {"measurement": "Mean No. Responses ± S.E.M.", "setting": "[1]; 25.0 mg/kg", "value": "1.80 ± 1.31"},
      {"measurement": "Mean No. Responses ± S.E.M.", "setting": "[1]; 50.0 mg/kg", "value": 0},
      {"measurement": "analgesia against chemically induced pain", "setting": "[1]; mouse, in vivo", "value": "provides analgesia"},
      {"measurement": "Analgesic Activity", "setting": "[1]; summary", "value": "Active"},
      {"measurement": "dose that totally inhibits cell division", "setting": "[2]", "value": 7, "unit": "µM"},
      {"measurement": "Increase to Lifespan", "setting": "[3]; 8.64 mg/kg ip", "value": -2, "unit": "%"},
      {"measurement": "Median Survival Time", "setting": "[3]; 8.64 mg/kg ip", "value": 20.5, "unit": "days"},
      {"measurement": "Weight Change on Day 9", "setting": "[3]; 8.64 mg/kg ip", "value": "+0.1 gm"},
      {"measurement": "Increase to Lifespan", "setting": "[3]; 14.4 mg/kg ip", "value": 0, "unit": "%"},
      {"measurement": "Median Survival Time", "setting": "[3]; 14.4 mg/kg ip", "value": 21, "unit": "days"},
      {"measurement": "Weight Change on Day 9", "setting": "[3]; 14.4 mg/kg ip", "value": "+0.2 gm"},
      {"measurement": "Increase to Lifespan", "setting": "[3]; 24 mg/kg ip", "value": 0, "unit": "%"},
      {"measurement": "Median Survival Time", "setting": "[3]; 24 mg/kg ip", "value": 21, "unit": "days"},
      {"measurement": "Weight Change on Day 9", "setting": "[3]; 24 mg/kg ip", "value": "+0.6 gm"},
      {"measurement": "Increase to Lifespan", "setting": "[3]; 40 mg/kg ip", "value": -2, "unit": "%"},
      {"measurement": "Median Survival Time", "setting": "[3]; 40 mg/kg ip", "value": 20.5, "unit": "days"},
      {"measurement": "Weight Change on Day 9", "setting": "[3]; 40 mg/kg ip", "value": -1.1, "unit": "gm"},
      {"measurement": "Increase to Lifespan", "setting": "[3]; 66.7 mg/kg ip", "value": 2, "unit": "%"},
      {"measurement": "Median Survival Time", "setting": "[3]; 66.7 mg/kg ip", "value": 21.5, "unit": "days"},
      {"measurement": "Weight Change on Day 9", "setting": "[3]; 66.7 mg/kg ip", "value": -2.9, "unit": "gm"},
      {"measurement": "antitumor activity", "setting": "[3]; M5076 reticulum cell sarcoma", "value": "did not demonstrate significant antitumor activity"},
      {"measurement": "Increase to Lifespan", "setting": "B16 melanoma; 6.48 mg/kg ip", "value": -2, "unit": "%"},
      {"measurement": "Median Survival Time", "setting": "B16 melanoma; 6.48 mg/kg ip", "value": 21.5, "unit": "days"},
      {"measurement": "Weight Change on Day 9", "setting": "B16 melanoma; 6.48 mg/kg ip", "value": "+1.2 gm"},
      {"measurement": "Increase to Lifespan", "setting": "B16 melanoma; 10.8 mg/kg ip", "value": -7, "unit": "%"},
      {"measurement": "Median Survival Time", "setting": "B16 melanoma; 10.8 mg/kg ip", "value": 20.5, "unit": "days"},
      {"measurement": "Weight Change on Day 9", "setting": "B16 melanoma; 10.8 mg/kg ip", "value": "+1.0 gm"},
      {"measurement": "Increase to Lifespan", "setting": "B16 melanoma; 18 mg/kg ip", "value": -2, "unit": "%"},
      {"measurement": "Median Survival Time", "setting": "B16 melanoma; 18 mg/kg ip", "value": 21.5, "unit": "days"},
      {"measurement": "Weight Change on Day 9", "setting": "B16 melanoma; 18 mg/kg ip", "value": "+0.9 gm"},
      {"measurement": "Increase to Lifespan", "setting": "B16 melanoma; 30 mg/kg ip", "value": 11, "unit": "%"},
      {"measurement": "Median Survival Time", "setting": "B16 melanoma; 30 mg/kg ip", "value": 24.5, "unit": "days"},
      {"measurement": "Weight Change on Day 9", "setting": "B16 melanoma; 30 mg/kg ip", "value": "+0.5 gm"},
      {"measurement": "Increase to Lifespan", "setting": "B16 melanoma; 50 mg/kg ip", "value": -4, "unit": "%"},
      {"measurement": "Median Survival Time", "setting": "B16 melanoma; 50 mg/kg ip", "value": 21, "unit": "days"},
      {"measurement": "Weight Change on Day 9", "setting": "B16 melanoma; 50 mg/kg ip", "value": -0.4, "unit": "gm"},
      {"measurement": "antitumor activity", "setting": "B16 melanoma; B16 melanoma", "value": "did not demonstrate significant antitumor activity"},
      {"measurement": "pIC50", "setting": "[4]", "value": 4.38},
      {"measurement": "duration of side effects", "setting": "[5]; [9]", "value": "last up to one hour"},
      {"measurement": "onset of side effects", "setting": "[5]; [9]", "value": "within a few minutes of administration"},
      {"measurement": "side effects", "setting": "[5]; 12.5 mg/kg to 50 mg/kg subcutaneously, sesame oil", "value": "central nervous system excitation, brief involuntary muscle contraction of the hind limbs resulting in lateral jumping movements, excessive preening of wound sites, and flushing of the tail and ears"},
      {"measurement": "side effects", "setting": "[5]; doses as low as 3 mg/kg", "value": "slight to moderate central nervous system excitation"},
      {"measurement": "ED50", "setting": "[6]; 50% inhibition of writhing, n = 10 mice/dose", "value": 4.22, "unit": "mg/kg"},
      {"measurement": "% Inhibition (writhing)", "setting": "[6]; 2.0 mg/kg", "value": 29, "unit": "%"},
      {"measurement": "% Inhibition (writhing)", "setting": "[6]; 3.5 mg/kg", "value": 46, "unit": "%"},
      {"measurement": "% Inhibition (writhing)", "setting": "[6]; 5.0 mg/kg", "value": 38, "unit": "%"},
      {"measurement": "% Inhibition (writhing)", "setting": "[6]; 7.5 mg/kg", "value": 79, "unit": "%"},
      {"measurement": "% Inhibition (writhing)", "setting": "[6]; 10 mg/kg", "value": 73, "unit": "%"},
      {"measurement": "% Inhibition (writhing)", "setting": "[6]; 20 mg/kg", "value": 96, "unit": "%"},
      {"measurement": "% Inhibition (edema)", "setting": "[7]; 6.25 mg/kg", "value": 0, "unit": "%"},
      {"measurement": "% Inhibition (edema)", "setting": "[7]; 12.5 mg/kg", "value": 24.4, "unit": "%"},
      {"measurement": "% Inhibition (edema)", "setting": "[7]; 25 mg/kg", "value": 43.8, "unit": "%"},
      {"measurement": "% Inhibition (edema)", "setting": "[7]; 50 mg/kg", "value": 46.5, "unit": "%"},
      {"measurement": "% Inhibition (edema)", "setting": "[7]; 100 mg/kg", "value": 90.4, "unit": "%"},
      {"measurement": "% Inhibition (edema)", "setting": "[8]; 6.25 ug/ear", "value": 28.8, "unit": "%"},
      {"measurement": "% Inhibition (edema)", "setting": "[8]; 12.5 ug/ear", "value": 78.3, "unit": "%"},
      {"measurement": "% Inhibition (edema)", "setting": "[8]; 25 ug/ear", "value": 89.5, "unit": "%"},
      {"measurement": "% Inhibition (edema)", "setting": "[8]; 50 ug/ear", "value": 96.0, "unit": "%"},
      {"measurement": "ED50", "setting": "[8]; 50% inhibition of inflammation, n = 10 mice/dose", "value": 8.3, "unit": "ug/ear"}
    ]}
  ]
}
